Our source for the Emax and EC50 values is US20250388574A1, “HETEROCYCLIC COMPOUNDS AS TRIGGERING RECEPTOR EXPRESSED ON MYELOID CELLS 2 AGONISTS AND METHODS OF USE” (AMGEN INC., priority 2020, published 2025).

For this experiment, the target named is hTREM2 (Homo sapiens, UniProt Q9NZC2). The experiment can be described thus: Phospho-Syk AlphaScreen/AlphaLISA assay in TREM2 and DAP12 overexpressing HEK293 cells (Example A1). The experiment is classed as cell-based. Further details: expressed in transfected cells. To be noted: HEK293 cells; for pEC50: read-out: hTREM2 EC50. The essentials:
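Agonism read as Syk phosphorylation: compounds in 1% DMSO applied 45 min at room temperature to TREM2/DAP12-HEK293 cells after 20 h culture. Lysis buffer with phosphatase inhibitors and anti-phospho-Syk plus biotinylated anti-Syk antibodies, then AlphaLISA beads (680 nm excitation); percent of control computed from antibody/isotype wells, curves fitted sigmoidally.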

pEC50: −log10 of the molar value.

hTREM2, sequence (Q9NZC2 19-230): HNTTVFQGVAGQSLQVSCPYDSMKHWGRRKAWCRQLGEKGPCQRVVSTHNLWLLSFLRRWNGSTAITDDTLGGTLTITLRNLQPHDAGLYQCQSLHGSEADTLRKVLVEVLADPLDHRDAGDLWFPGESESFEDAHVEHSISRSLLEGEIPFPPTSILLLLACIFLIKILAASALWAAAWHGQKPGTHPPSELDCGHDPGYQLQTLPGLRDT
hTREM2, sequence (O43914 22-113 partner): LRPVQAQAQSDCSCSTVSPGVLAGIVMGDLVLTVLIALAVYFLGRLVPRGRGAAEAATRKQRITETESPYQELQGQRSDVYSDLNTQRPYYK

`Cc1nc2cc(N3CCO[C@@H](c4cnn(C)c4)C3)nc(-c3cc(F)ccc3F)c2c(=O)n1C` [Example 228, (S)-5-(2,5-difluorophenyl)-2,3-dimethyl-7-(2-(1-methyl-1H-pyrazol-4-yl)morpholino)pyrido[4,3-d]pyrimidin-4(3H)-one]: the Emax entry was “+++ (Emax>200 and ≤300)”; the pEC50 was 5.52 to 6.30.
Consider `Cc1nc2cc(N3CCO[C@@H](c4cnn(C)c4)C3)nc(-c3ccc(F)cc3)c2c(=O)n1C` [Example 229, (S)-5-(4-fluorophenyl)-2,3-dimethyl-7-(2-(1-methyl-1H-pyrazol-4-yl)morpholino)pyrido[4,3-d]pyrimidin-4(3H)-one], for which the Emax entry is reported as “++++ (Emax>300)” and the pEC50 was 5.52 to 6.30.
For `Cc1noc([C@H]2CCCN(c3cc4nc(C)n(C)c(=O)c4c(-c4ccc(Cl)cc4F)n3)C2)n1` [Example 230, (S)-5-(4-chloro-2-fluorophenyl)-2,3-dimethyl-7-(3-(3-methyl-1,2,4-oxadiazol-5-yl)piperidin-1-yl)pyrido[4,3-d]pyrimidin-4(3H)-one], the Emax entry is reported as “++++ (Emax>300)” and the pEC50 is 5.52 to 6.30.
For the molecule `Cc1cnn([C@H]2CCCN(c3cc4nc(C)n(C)c(=O)c4c(-c4ccc(Cl)cc4F)n3)C2)c1` [Example 231, (S)-5-(4-chloro-2-fluorophenyl)-2,3-dimethyl-7-(3-(4-methyl-1H-pyrazol-1-yl)piperidin-1-yl)pyrido[4,3-d]pyrimidin-4(3H)-one], the Emax entry is “+++ (Emax>200 and ≤300)”; the pEC50 was 5.52 to 6.30.
Take `Cc1nc2cc(N3CCC[C@H](N4CCCC4=O)C3)nc(-c3ccc(Cl)cc3F)c2c(=O)n1C` [Example 232, (S)-5-(4-chloro-2-fluorophenyl)-2,3-dimethyl-7-(3-(2-oxopyrrolidin-1-yl)piperidin-1-yl)pyrido[4,3-d]pyrimidin-4(3H)-one]: the Emax entry was “++++ (Emax>300)” and the pEC50 was 5.52 to 6.30.
With `Cc1nc2cc(N3CCC[C@H](c4ccncc4)C3)nc(-c3ccc(Cl)cc3F)c2c(=O)n1C` [Example 233, (R)-5-(4-chloro-2-fluorophenyl)-2,3-dimethyl-7-(3-(pyridin-4-yl)piperidin-1-yl)pyrido[4,3-d]pyrimidin-4(3H)-one], the Emax result is reported as “++++ (Emax>300)” and the negative-log EC50 (pEC50) is 6.30 to 7.30.
`Cc1cn2c(n1)CN(c1cc3nc(C)n(C)c(=O)c3c(-c3ccc(Cl)cc3F)n1)CC2` [Example 234, 5-(4-chloro-2-fluorophenyl)-2,3-dimethyl-7-(2-methyl-5,6-dihydroimidazo[1,2-a]pyrazin-7(8H)-yl)pyrido[4,3-d]pyrimidin-4(3H)-one]: the Emax result was “++ (Emax>100 and ≤200)”; the pEC50 is 4.00 to 5.52.
As to `Cc1nc2cc(N3CCO[C@H](c4ccc(OCC(F)(F)F)nc4)C3)nc(-c3ccc(Cl)cc3F)c2c(=O)n1C` [Example 235, (R)-5-(4-chloro-2-fluorophenyl)-2,3-dimethyl-7-(2-(6-(2,2,2-trifluoroethoxy)pyridin-3-yl)morpholino)pyrido[4,3-d]pyrimidin-4(3H)-one], the Emax result is given as “++++ (Emax>300)” and the pEC50 was 5.52 to 6.30.
With `Cc1nc2cc(N3CCO[C@@H](c4ccc(OCC(F)(F)F)nc4)C3)nc(-c3ccc(Cl)cc3F)c2c(=O)n1C` [Example 236, (S)-5-(4-chloro-2-fluorophenyl)-2,3-dimethyl-7-(2-(6-(2,2,2-trifluoroethoxy)pyridin-3-yl)morpholino)pyrido[4,3-d]pyrimidin-4(3H)-one], the Emax entry is “++ (Emax>100 and ≤200)”; the pEC50 is 4.00 to 5.52.
Turning to `COc1ccc([C@@H]2CN(c3cc4nc(C)n(C)c(=O)c4c(-c4ccc(Cl)cc4F)n3)CCO2)cc1` [Example 237, (R)-5-(4-chloro-2-fluorophenyl)-7-(2-(4-methoxyphenyl)morpholino)-2,3-dimethylpyrido[4,3-d]pyrimidin-4(3H)-one], the Emax result was “++ (Emax>100 and ≤200)”; the pEC50 was 6.30 to 7.30.
With `COc1cccc([C@@H]2CN(c3cc4nc(C)n(C)c(=O)c4c(-c4ccc(Cl)cc4F)n3)CCO2)c1` [Example 238, (R)-5-(4-chloro-2-fluorophenyl)-7-(2-(3-methoxyphenyl)morpholino)-2,3-dimethylpyrido[4,3-d]pyrimidin-4(3H)-one], the Emax result is reported as “++++ (Emax>300)” and the pEC50 is 6.30 to 7.30.
With `Cc1nc2cc(N3CCO[C@H](c4cccc(Cl)c4)C3)nc(-c3ccc(Cl)cc3F)c2c(=O)n1C` [Example 239, (R)-5-(4-chloro-2-fluorophenyl)-7-(2-(3-chlorophenyl)morpholino)-2,3-dimethylpyrido[4,3-d]pyrimidin-4(3H)-one], the Emax entry is “+++ (Emax>200 and ≤300)”; the pEC50 was 4.00 to 5.52.
On to `Cc1nc2cc(N3CCO[C@H](c4ccsc4)C3)nc(-c3ccc(Cl)cc3F)c2c(=O)n1C` [Example 240, (R)-5-(4-chloro-2-fluorophenyl)-2,3-dimethyl-7-(2-(thiophen-3-yl)morpholino)pyrido[4,3-d]pyrimidin-4(3H)-one], for which the Emax entry is “++++ (Emax>300)” and the pEC50 was 4.00 to 5.52.
As for `CCc1nnc([C@@H]2CN(c3cc4nc(C)n(C)c(=O)c4c(-c4ccc(Cl)cc4F)n3)CCO2)[nH]1` [Example 241, (S)-5-(4-chloro-2-fluorophenyl)-7-(2-(5-ethyl-4H-1,2,4-triazol-3-yl)morpholino)-2,3-dimethylpyrido[4,3-d]pyrimidin-4(3H)-one], the Emax entry was “+++ (Emax>200 and ≤300)”; the pEC50 was 4.00 to 5.52.
`Cc1nc2cc(N3CCC[C@H](N4CCCC4)C3)nc(-c3ccc(Cl)cc3F)c2c(=O)n1C` [Example 242, (S)-5-(4-chloro-2-fluorophenyl)-2,3-dimethyl-7-(3-(pyrrolidin-1-yl)piperidin-1-yl)pyrido[4,3-d]pyrimidin-4(3H)-one]: the Emax result was “+++ (Emax>200 and ≤300)”; the pEC50 was 4.00 to 5.52.
Take `COc1cc([C@@H]2CN(c3cc4nc(C)n(C)c(=O)c4c(-c4ccc(Cl)cc4F)n3)CCO2)ccn1` [Example 243, (R)-5-(4-chloro-2-fluorophenyl)-7-(2-(2-methoxypyridin-4-yl)morpholino)-2,3-dimethylpyrido[4,3-d]pyrimidin-4(3H)-one]: the Emax entry is given as “++++ (Emax>300)” and the pEC50 was more than 7.30.
On to `Cc1nc2cc(N3CCC[C@@H](N(C)C)C3)nc(-c3ccc(Cl)cc3F)c2c(=O)n1C` [Example 244, (R)-5-(4-chloro-2-fluorophenyl)-7-(3-(dimethylamino)piperidin-1-yl)-2,3-dimethylpyrido[4,3-d]pyrimidin-4(3H)-one], for which the Emax result was “+++ (Emax>200 and ≤300)”; the pEC50 is 4.00 to 5.52.
For the molecule `Cc1nc2cc(N3CCC[C@H](N4CCC4)C3)nc(-c3ccc(Cl)cc3F)c2c(=O)n1C` [Example 245, (S)-7-(3-(azetidin-1-yl)piperidin-1-yl)-5-(4-chloro-2-fluorophenyl)-2,3-dimethylpyrido[4,3-d]pyrimidin-4(3H)-one], the Emax entry is “++ (Emax>100 and ≤200)”; the pEC50 is 4.00 to 5.52.
`Cc1nc2cc(N3CCC[C@@H](N4CCC4)C3)nc(-c3ccc(Cl)cc3F)c2c(=O)n1C` [Example 246, (R)-7-(3-(azetidin-1-yl)piperidin-1-yl)-5-(4-chloro-2-fluorophenyl)-2,3-dimethylpyrido[4,3-d]pyrimidin-4(3H)-one]: the Emax entry was “+++ (Emax>200 and ≤300)”; the pEC50 is 4.00 to 5.52.
`Cc1nc2cc(N3Cc4cccnc4C3)nc(-c3ccc(Cl)cc3F)c2c(=O)n1C` [Example 247, 5-(4-chloro-2-fluorophenyl)-7-(5,7-dihydro-6H-pyrrolo[3,4-b]pyridin-6-yl)-2,3-dimethylpyrido [4,3-d]pyrimidin-4(3H)-one]: the Emax entry was “++ (Emax>100 and ≤200)”; the pEC50 was 4.00 to 5.52.
As for `Cc1nc2cc(N3CCc4ncccc4C3)nc(-c3ccc(Cl)cc3F)c2c(=O)n1C` [Example 248, 5-(4-chloro-2-fluorophenyl)-7-(7,8-dihydro-1,6-naphthyridin-6(5H)-yl)-2,3-dimethylpyrido[4,3-d]pyrimidin-4(3H)-one], the Emax result is “+++ (Emax>200 and ≤300)”; the pEC50 is 4.00 to 5.52.
For the molecule `Cc1nc2cc(N3CCC(F)(F)[C@H](N4CCC4)C3)nc(-c3ccc(Cl)cc3F)c2c(=O)n1C` [Example 249, (R)-7-(3-(azetidin-1-yl)-4,4-difluoropiperidin-1-yl)-5-(4-chloro-2-fluorophenyl)-2,3-dimethylpyrido[4,3-d]pyrimidin-4(3H)-one], the Emax entry is “++++ (Emax>300)” and the pEC50 is 5.52 to 6.30.
Consider `Cc1nc2cc(N3CCC(F)(F)[C@H](N(C)C)C3)nc(-c3ccc(Cl)cc3F)c2c(=O)n1C` [Example 250, (R)-5-(4-chloro-2-fluorophenyl)-7-(3-(dimethylamino)-4,4-difluoropiperidin-1-yl)-2,3-dimethylpyrido[4,3-d]pyrimidin-4(3H)-one], for which the Emax entry is recorded as “++++ (Emax>300)” and the pEC50 is 4.00 to 5.52.
In the case of `Cc1nc2cc(N3CCC[C@@H](C4CNC4)C3)nc(-c3ccc(Cl)cc3F)c2c(=O)n1C` [Example 251, (S)-7-(3-(azetidin-3-yl)piperidin-1-yl)-5-(4-chloro-2-fluorophenyl)-2,3-dimethylpyrido[4,3-d]pyrimidin-4(3H)-one], the Emax result was “++ (Emax>100 and ≤200)”; the pEC50 is 4.00 to 5.52.
As for `Cc1nc2cc(N3CCC[C@H](C4CN(C)C4)C3)nc(-c3ccc(Cl)cc3F)c2c(=O)n1C` [Example 252, (R)-5-(4-chloro-2-fluorophenyl)-2,3-dimethyl-7-(3-(1-methylazetidin-3-yl)piperidin-1-yl)pyrido[4,3-d]pyrimidin-4(3H)-one], the Emax result was “+++ (Emax>200 and ≤300)”; the pEC50 was 4.00 to 5.52.
